The text below walks through data of patent US10406207B2, “Peptide conjugates of GLP-1 receptor agonists and gastrin and their use” (priority 2010, dated 2019).

The target of one assay is T1, human GLP-1 R (Homo sapiens, UniProt P43220).
T1 construct: expressed in transfected cells
As to the kind of experiment: Human GLP-1 receptor efficacy assay (cAMP induction, FlashPlate). The settings on record: Table 2; read-out: hGLP-1 R EC50. Format: cell-based. Here is the method:
On the day of analysis, growth medium was removed and the cells were washed once with 200 μl Tyrode buffer [Tyrode's Salts (9.6 g/l), 10 mM HEPES, pH 7.4]. […] The reaction was stopped by addition of 25 μl 0.5 M HCl and incubated on ice for 60 min.

The next assay has as its target T2, human CCK-B R (Homo sapiens, UniProt P32239).
T2 construct: expressed in transfected cells
T2 sequence (P32239 1-447): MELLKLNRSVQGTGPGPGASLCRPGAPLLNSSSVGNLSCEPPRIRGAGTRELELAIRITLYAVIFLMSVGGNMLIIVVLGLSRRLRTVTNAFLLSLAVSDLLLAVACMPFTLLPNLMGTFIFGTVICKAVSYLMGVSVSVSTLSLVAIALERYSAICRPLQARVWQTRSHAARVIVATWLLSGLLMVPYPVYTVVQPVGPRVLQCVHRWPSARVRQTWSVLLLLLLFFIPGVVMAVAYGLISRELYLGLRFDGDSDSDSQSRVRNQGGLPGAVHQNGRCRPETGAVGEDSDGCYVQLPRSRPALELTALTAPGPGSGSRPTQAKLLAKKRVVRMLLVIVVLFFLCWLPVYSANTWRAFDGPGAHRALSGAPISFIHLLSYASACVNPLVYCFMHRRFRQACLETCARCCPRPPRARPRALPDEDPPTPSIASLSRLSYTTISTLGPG
As to the kind of experiment: Human CCK-B receptor efficacy assay (AlphaScreen SureFire p-ERK). It counts as cell-based. The settings on record: Table 2; read-out: hCCK-B R EC50.

pEC50: −log10 of the molar value. Square brackets hold non-standard residues; d marks the D form. Peptide text beside a SMILES is read from it. Orn = NCCC[C@H](N)C(=O)O; AEEA = NCCOCCOCC(=O)O

T1 sequence (P43220 24-463): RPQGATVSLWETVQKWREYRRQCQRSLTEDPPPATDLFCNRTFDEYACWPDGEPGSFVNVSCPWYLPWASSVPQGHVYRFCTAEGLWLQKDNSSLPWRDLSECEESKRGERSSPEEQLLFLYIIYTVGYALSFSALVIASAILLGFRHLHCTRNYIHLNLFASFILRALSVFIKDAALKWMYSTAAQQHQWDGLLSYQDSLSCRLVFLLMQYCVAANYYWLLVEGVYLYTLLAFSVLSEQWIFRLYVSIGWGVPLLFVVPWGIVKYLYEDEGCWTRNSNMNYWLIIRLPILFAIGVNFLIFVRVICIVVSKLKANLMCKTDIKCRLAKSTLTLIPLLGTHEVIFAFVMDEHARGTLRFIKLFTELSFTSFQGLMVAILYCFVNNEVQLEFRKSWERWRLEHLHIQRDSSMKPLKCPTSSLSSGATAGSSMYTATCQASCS

In the case of `CC[C@H](C)[C@H](NC(=O)[C@H](Cc1ccccc1)NC(=O)[C@H](CC(C)C)NC(=O)[C@H](CCCNC(=N)N)NC(=O)[C@@H](NC(=O)[C@H](C)NC(=O)[C@H](CCC(=O)O)NC(=O)[C@H](CCC(=O)O)NC(=O)[C@H](CCC(=O)O)NC(=O)[C@H](CC(C)C)NC(=O)[C@H](Cc1ccc(O)cc1)NC(=O)[C@H](CCCCN)NC(=O)[C@H](CO)NC(=O)[C@H](CC(C)C)NC(=O)[C@H](CCC(=O)O)NC(=O)[C@H](CO)NC(=O)[C@@H](NC(=O)[C@H](Cc1ccccc1)NC(=O)[C@@H](NC(=O)CNC(=O)[C@H](CCC(=O)O)NC(=O)CNC(=O)[C@@H](N)Cc1c[nH]cn1)[C@@H](C)O)[C@@H](C)O)C(C)C)C(=O)N[C@@H](CCC(=O)O)C(=O)N[C@@H](Cc1ccccc1)C(=O)N[C@@H](CC(C)C)C(=O)N[C@@H](CCCCN)C(=O)NCCOCCOCC(=O)N[C@@H](Cc1c[nH]c2ccccc12)C(=O)N[C@@H](CC(C)C)C(=O)N[C@@H](CC(=O)O)C(=O)N[C@@H](Cc1ccccc1)C(N)=O` [Compound 97, [Glu9,Leu14,Phe25,Tyr13]Exendin-4(1-27)-Peg3-[Leu2]Gastrin4] (H-HGEGTFTSELSKYLEEEAVRLFIEFLK[AEEA]WLDF-NH2), the pEC50 at human GLP-1 R is 10.22; on human CCK-B R, 7.89.
In the same order, the values of `CC[C@H](C)[C@H](NC(=O)[C@H](Cc1ccccc1)NC(=O)[C@H](CC(C)C)NC(=O)[C@H](CCCNC(=N)N)NC(=O)[C@@H](NC(=O)[C@H](C)NC(=O)[C@H](CCC(=O)O)NC(=O)[C@H](CCCCN)NC(=O)[C@H](CCC(=O)O)NC(=O)[C@H](CC(C)C)NC(=O)[C@H](Cc1ccc(O)cc1)NC(=O)[C@H](CCCNC(=N)N)NC(=O)[C@H](CO)NC(=O)[C@H](CC(C)C)NC(=O)[C@H](CC(=O)O)NC(=O)[C@H](CO)NC(=O)[C@@H](NC(=O)[C@H](Cc1ccccc1)NC(=O)[C@@H](NC(=O)CNC(=O)[C@H](CCC(=O)O)NC(=O)CNC(=O)[C@@H](N)Cc1c[nH]cn1)[C@@H](C)O)[C@@H](C)O)C(C)C)C(=O)N[C@@H](CCC(=O)O)C(=O)N[C@@H](Cc1ccccc1)C(=O)N[C@@H](CC(C)C)C(=O)N[C@@H](CCCNC(=N)N)C(=O)NCCOCCOCC(=O)N[C@@H](Cc1ccc(O)cc1)C(=O)NCC(=O)N[C@@H](Cc1c[nH]c2ccccc12)C(=O)N[C@@H](CC(C)C)C(=O)N[C@@H](CC(=O)O)C(=O)N[C@@H](Cc1ccccc1)C(N)=O` [Compound 92, [Arg12,27,Leu14,Lys16,Phe25,Tyr13]Exendin-4(1-27)-Peg3-[Leu4]Gastrin6] (H-HGEGTFTSDLSRYLEKEAVRLFIEFLR[AEEA]YGWLDF-NH2) are 9.77 and 7.59.
As to `CC[C@H](C)[C@H](NC(=O)[C@H](Cc1ccccc1)NC(=O)[C@H](CC(C)C)NC(=O)[C@H](CCCNC(=N)N)NC(=O)[C@@H](NC(=O)[C@H](C)NC(=O)[C@H](CCC(=O)O)NC(=O)[C@H](CCC(=O)O)NC(=O)[C@H](CCC(=O)O)NC(=O)[C@H](CC(C)C)NC(=O)[C@H](Cc1ccc(O)cc1)NC(=O)[C@H](CCCNC(=N)N)NC(=O)[C@H](CO)NC(=O)[C@H](CC(C)C)NC(=O)[C@H](CC(=O)O)NC(=O)[C@H](CO)NC(=O)[C@@H](NC(=O)[C@H](Cc1ccccc1)NC(=O)[C@@H](NC(=O)CNC(=O)[C@H](CCC(=O)O)NC(=O)CNC(=O)[C@@H](N)Cc1c[nH]cn1)[C@@H](C)O)[C@@H](C)O)C(C)C)C(=O)N[C@@H](CCC(=O)O)C(=O)N[C@@H](Cc1ccccc1)C(=O)N[C@@H](CC(C)C)C(=O)N[C@@H](CCCCN)C(=O)NCCOCCOCC(=O)N[C@@H](Cc1ccc(O)cc1)C(=O)NCC(=O)N[C@@H](Cc1c[nH]c2ccccc12)C(=O)N[C@@H](CC(C)C)C(=O)N[C@@H](CC(=O)O)C(=O)N[C@@H](Cc1ccccc1)C(N)=O` [Compound 95, [Arg12,Leu14,Phe25,Tyr13]Exendin-4(1-27)-Peg3-[Leu4]Gastrin6] (H-HGEGTFTSDLSRYLEEEAVRLFIEFLK[AEEA]YGWLDF-NH2), the values for the pEC50 at human GLP-1 R and on human CCK-B R were 10.10 and 7.85, respectively.
In the same order, the values of `CC[C@H](C)[C@H](NC(=O)[C@H](Cc1ccccc1)NC(=O)[C@H](CC(C)C)NC(=O)[C@H](CCCNC(=N)N)NC(=O)[C@@H](NC(=O)[C@H](C)NC(=O)[C@H](CCC(=O)O)NC(=O)[C@H](CCC(=O)O)NC(=O)[C@H](CCC(=O)O)NC(=O)[C@H](CC(C)C)NC(=O)[C@H](Cc1ccc(O)cc1)NC(=O)[C@H](CCCCN)NC(=O)[C@H](CO)NC(=O)[C@H](CC(C)C)NC(=O)[C@H](CCC(=O)O)NC(=O)[C@H](CO)NC(=O)[C@@H](NC(=O)[C@H](Cc1ccccc1)NC(=O)[C@@H](NC(=O)CNC(=O)[C@H](CCC(=O)O)NC(=O)CNC(=O)[C@@H](N)Cc1c[nH]cn1)[C@@H](C)O)[C@@H](C)O)C(C)C)C(=O)N[C@@H](CCC(=O)O)C(=O)N[C@@H](Cc1ccccc1)C(=O)N[C@@H](CC(C)C)C(=O)N[C@@H](CCCCN)C(=O)N[C@@H](CCCN)C(=O)NCCOCCOCC(=O)N[C@@H](Cc1ccc(O)cc1)C(=O)NCC(=O)N[C@@H](Cc1c[nH]c2ccccc12)C(=O)N[C@@H](CC(C)C)C(=O)N[C@@H](CC(=O)O)C(=O)N[C@@H](Cc1ccccc1)C(N)=O` [Compound 103, [Glu9,Leu14,Phe25,Tyr13]Exendin-4(1-27)-Orn-Peg3-[Leu4]Gastrin6] (H-HGEGTFTSELSKYLEEEAVRLFIEFLK[Orn][AEEA]YGWLDF-NH2) are 9.92 and 7.00.
Take `CC[C@H](C)[C@H](NC(=O)[C@H](Cc1ccccc1)NC(=O)[C@H](CC(C)C)NC(=O)[C@H](CCCNC(=N)N)NC(=O)[C@@H](NC(=O)[C@H](C)NC(=O)[C@H](CCC(=O)O)NC(=O)[C@H](CCC(=O)O)NC(=O)[C@H](CCC(=O)O)NC(=O)[C@H](CC(C)C)NC(=O)[C@H](Cc1ccc(O)cc1)NC(=O)[C@H](CCCCN)NC(=O)[C@H](CO)NC(=O)[C@H](CC(C)C)NC(=O)[C@H](CCC(=O)O)NC(=O)[C@H](CO)NC(=O)[C@@H](NC(=O)[C@H](Cc1ccccc1)NC(=O)[C@@H](NC(=O)CNC(=O)[C@H](CCC(=O)O)NC(=O)CNC(=O)[C@@H](N)Cc1c[nH]cn1)[C@@H](C)O)[C@@H](C)O)C(C)C)C(=O)N[C@@H](CCC(=O)O)C(=O)N[C@@H](Cc1ccccc1)C(=O)N[C@@H](CC(C)C)C(=O)N[C@@H](CCCCN)C(=O)NCCOCCOCC(=O)NCCOCCOCC(=O)N[C@@H](Cc1ccc(O)cc1)C(=O)NCC(=O)N[C@@H](Cc1c[nH]c2ccccc12)C(=O)N[C@@H](CC(C)C)C(=O)N[C@@H](CC(=O)O)C(=O)N[C@@H](Cc1ccccc1)C(N)=O` [Compound 88, [Glu9,Leu14,Phe25,Tyr13]Exendin-4(1-27)-Peg3-Peg3-[Leu4]Gastrin6] (H-HGEGTFTSELSKYLEEEAVRLFIEFLK[AEEA][AEEA]YGWLDF-NH2): the pEC50 at human GLP-1 R was 10.34; at human CCK-B R, 7.70.
In the same order, the values of `CC[C@H](C)[C@H](NC(=O)[C@H](Cc1ccccc1)NC(=O)[C@H](CC(C)C)NC(=O)[C@H](CCCNC(=N)N)NC(=O)[C@@H](NC(=O)[C@H](C)NC(=O)[C@H](CCC(=O)O)NC(=O)[C@H](CCC(=O)O)NC(=O)[C@H](CCC(=O)O)NC(=O)[C@H](CC(C)C)NC(=O)[C@H](Cc1ccc(O)cc1)NC(=O)[C@H](CCCCN)NC(=O)[C@H](CO)NC(=O)[C@H](CC(C)C)NC(=O)[C@H](CCC(=O)O)NC(=O)[C@H](CO)NC(=O)[C@@H](NC(=O)[C@H](Cc1ccccc1)NC(=O)[C@@H](NC(=O)CNC(=O)[C@H](CCC(=O)O)NC(=O)CNC(=O)[C@@H](N)Cc1c[nH]cn1)[C@@H](C)O)[C@@H](C)O)C(C)C)C(=O)N[C@@H](CCC(=O)O)C(=O)N[C@@H](Cc1ccccc1)C(=O)N[C@@H](CC(C)C)C(=O)N[C@@H](CCCCN)C(=O)N[C@@H](CCCN)C(=O)N[C@@H](CCCN)C(=O)N[C@@H](Cc1ccc(O)cc1)C(=O)NCC(=O)N[C@@H](Cc1c[nH]c2ccccc12)C(=O)N[C@@H](CC(C)C)C(=O)N[C@@H](CC(=O)O)C(=O)N[C@@H](Cc1ccccc1)C(N)=O` [Compound 105, [Glu9,Leu14,Phe25,Tyr13]Exendin-4(1-27)-Orn-Orn-[Leu4]Gastrin6] (H-HGEGTFTSELSKYLEEEAVRLFIEFLK[Orn][Orn]YGWLDF-NH2) are 9.96 and 7.80.
For the compound `CC[C@H](C)[C@H](NC(=O)[C@H](Cc1ccccc1)NC(=O)[C@H](CC(C)C)NC(=O)[C@H](CCCNC(=N)N)NC(=O)[C@@H](NC(=O)[C@H](C)NC(=O)[C@H](CCC(=O)O)NC(=O)[C@H](CCC(=O)O)NC(=O)[C@H](CCC(=O)O)NC(=O)[C@H](CC(C)C)NC(=O)[C@H](Cc1ccc(O)cc1)NC(=O)[C@H](CCCCN)NC(=O)[C@H](CO)NC(=O)[C@H](CC(C)C)NC(=O)[C@H](CCC(=O)O)NC(=O)[C@H](CO)NC(=O)[C@@H](NC(=O)[C@H](Cc1ccccc1)NC(=O)[C@@H](NC(=O)CNC(=O)[C@H](CCC(=O)O)NC(=O)CNC(=O)[C@@H](N)Cc1c[nH]cn1)[C@@H](C)O)[C@@H](C)O)C(C)C)C(=O)N[C@@H](CCC(=O)O)C(=O)N[C@@H](Cc1ccccc1)C(=O)N[C@@H](CC(C)C)C(=O)N[C@@H](CCCCN)C(=O)NCCOCCOCC(=O)N[C@@H](CCCN)C(=O)N[C@@H](Cc1ccc(O)cc1)C(=O)NCC(=O)N[C@@H](Cc1c[nH]c2ccccc12)C(=O)N[C@@H](CC(C)C)C(=O)N[C@@H](CC(=O)O)C(=O)N[C@@H](Cc1ccccc1)C(N)=O` [Compound 104, [Glu9,Leu14,Phe25,Tyr13]Exendin-4(1-27)-Peg3-Orn-[Leu4]Gastrin6] (H-HGEGTFTSELSKYLEEEAVRLFIEFLK[AEEA][Orn]YGWLDF-NH2), the pEC50 at human GLP-1 R is 10.06; on human CCK-B R, 8.06.
